Measured values published in patent US10131652B2, “Pyrimidinyloxy benzene derivatives as herbicides” (E. I. DU PONT DE NEMOURS AND COMPANY, priority 2014, dated 2018).
Read-outs that look alike come from different tables or passages of the source.

Tests used:
Experiment in all cases: Test D pre-/postemergence plant response
Type in all cases: in vivo
[1] = tested on: ragweed (common ragweed, Ambrosia elatior); conditions: Ambrosia artemisiifolia; for pest or weed control at 31 g/ha: 31 g ai/ha; for pest or weed control at 62 g/ha: 62 g ai/ha; for pest or weed control at 125 g/ha: 125 g ai/ha
In short: (§1)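 Test chemicals were formulated in a non-phytotoxic solvent mixture containing surfactant and applied either preemergence to seeds in loam–sand soil or postemergence to plants 2 to 18 cm tall (1- to 4-leaf stage). Response was rated visually against controls after 13 to 15 days, from 0 (none) to 100 (complete control).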

[2] = tested on: galium (catchweed bedstraw, Galium aparine); conditions: Galium; for pest or weed control at 31 g/ha: 31 g ai/ha; for pest or weed control at 62 g/ha: 62 g ai/ha; for pest or weed control at 125 g/ha: 125 g ai/ha
In short: as §1

[3] = tested on: oilseed rape (Brassica napus); conditions: Brassica napus; for plant injury at 31 g/ha: 31 g ai/ha; for plant injury at 62 g/ha: 62 g ai/ha; for plant injury at 125 g/ha: 125 g ai/ha
In short: as §1

[4] = tested on: pigweed (Amaranthus retroflexus); conditions: Amaranthus retroflexus; for pest or weed control at 31 g/ha: 31 g ai/ha; for pest or weed control at 62 g/ha: 62 g ai/ha; for pest or weed control at 125 g/ha: 125 g ai/ha
In short: as §1

[5] = tested on: blackgrass (Alopecurus myosuroides); conditions: Alopecurus myosuroides; for pest or weed control at 16 g/ha: 16 g ai/ha; for pest or weed control at 31 g/ha: 31 g ai/ha; for pest or weed control at 62 g/ha: 62 g ai/ha; for pest or weed control at 125 g/ha: 125 g ai/ha
In short: as §1

[6] = tested on: large (Lg) crabgrass (Digitaria sanguinalis); conditions: Digitaria sanguinalis; for pest or weed control at 16 g/ha: 16 g ai/ha; for pest or weed control at 31 g/ha: 31 g ai/ha; for pest or weed control at 62 g/ha: 62 g ai/ha; for pest or weed control at 125 g/ha: 125 g ai/ha
In short: as §1

[7] = tested on: giant foxtail (Setaria faberii); conditions: Setaria faberi, post-emergence, Postemergence
In short: as §1

[8] = post-emergence, Postemergence, scale 0 to 100, 0 no effect, 100 complete control, read-out: Plant response rating, Ragweed
[9] = pre-emergence, Preemergence, scale 0 to 100 (0 no effect, 100 complete control), read-out: Plant response rating, Ragweed
[10] = post-emergence, Postemergence, scale 0 to 100, 0 no effect, 100 complete control, read-out: Plant response rating, Galium
[11] = pre-emergence, Preemergence, scale 0 to 100 (0 no effect, 100 complete control), read-out: Plant response rating, Galium
[12] = post-emergence, Postemergence, scale 0 to 100, 0 no effect, 100 complete control, read-out: Plant response rating, Oilseed Rape
[13] = pre-emergence, Preemergence, scale 0 to 100 (0 no effect, 100 complete control), read-out: Plant response rating, Oilseed Rape
[14] = post-emergence, Postemergence, scale 0 to 100, 0 no effect, 100 complete control, read-out: Plant response rating, Pigweed
[15] = pre-emergence, Preemergence, scale 0 to 100 (0 no effect, 100 complete control), read-out: Plant response rating, Pigweed
[16] = post-emergence, Postemergence, scale 0 to 100 (0 no effect, 100 complete control), read-out: Blackgrass plant response rating
[17] = post-emergence, Postemergence, scale 0 to 100, 0 no effect, 100 complete control, read-out: Plant response rating, Blackgrass
[18] = pre-emergence, Preemergence, scale 0 to 100 (0 no effect, 100 complete control), read-out: Plant response rating, Blackgrass
[19] = post-emergence, Postemergence, scale 0 to 100 (0 no effect, 100 complete control), read-out: Crabgrass, Large plant response rating
[20] = post-emergence, Postemergence, scale 0 to 100, 0 no effect, 100 complete control, read-out: Plant response rating, Crabgrass, Large
[21] = pre-emergence, Preemergence, scale 0 to 100 (0 no effect, 100 complete control), read-out: Plant response rating, Crabgrass, Large

Fc1cccc(Oc2ncc(Cl)cn2)c1-c1cc(C(F)(F)F)on1 [Compound 168, 5-chloro-2-[2-[5-(trifluoromethyl)-3-isoxazolyl]-3-fluorophenoxy]pyrimidine]
20%: pest or weed control at 125 g/ha [5, 17]
50%: pest or weed control at 31 g/ha ([1]; post-emergence, Postemergence, scale 0 to 100 (0 no effect, 100 complete control), read-out: Ragweed plant response rating)
45%: pest or weed control at 31 g/ha [1, 9]
15%: pest or weed control at 31 g/ha [5, 16] | pest or weed control at 62 g/ha [5, 17] | pest or weed control at 62 g/ha [6, 20]
90%: pest or weed control at 125 g/ha ([5]; pre-emergence, Preemergence, read-out: Plant response rating (scale 0 to 100), Blackgrass) | pest or weed control at 31 g/ha [5, 18] | pest or weed control at 62 g/ha [5, 18]
5%: pest or weed control at 16 g/ha [6, 19] | pest or weed control at 31 g/ha [6, 19]
95%: pest or weed control at 31 g/ha ([2]; post-emergence, Postemergence, scale 0 to 100 (0 no effect, 100 complete control), read-out: Galium plant response rating) | pest or weed control at 62 g/ha [2, 10] | plant injury at 16 g/ha ([3]; pre-emergence, Preemergence, 16 g ai/ha, scale 0 to 100 (0 no effect, 100 complete control), read-out: Plant response rating, Oilseed Rape) | pest or weed control at 62 g/ha [4, 14]
85%: pest or weed control at 31 g/ha ([4]; post-emergence, Postemergence, scale 0 to 100 (0 no effect, 100 complete control), read-out: Pigweed plant response rating) | pest or weed control at 16 g/ha ([4]; pre-emergence, Preemergence, 16 g ai/ha, scale 0 to 100 (0 no effect, 100 complete control), read-out: Plant response rating, Pigweed) | pest or weed control at 16 g/ha [5, 18]
100%: pest or weed control at 125 g/ha ([1]; pre-emergence, Preemergence, read-out: Plant response rating (scale 0 to 100), Ragweed) | pest or weed control at 62 g/ha [1, 9] | pest or weed control at 125 g/ha [2, 10] | pest or weed control at 125 g/ha ([2]; pre-emergence, Preemergence, read-out: Plant response rating (scale 0 to 100), Galium) | pest or weed control at 16 g/ha ([2]; pre-emergence, Preemergence, 16 g ai/ha, scale 0 to 100 (0 no effect, 100 complete control), read-out: Plant response rating, Galium) | pest or weed control at 31 g/ha [2, 11] | pest or weed control at 62 g/ha [2, 11] | plant injury at 31 g/ha ([3]; post-emergence, Postemergence, scale 0 to 100 (0 no effect, 100 complete control), read-out: Oilseed Rape plant response rating) | plant injury at 62 g/ha [3, 12] | plant injury at 125 g/ha [3, 12] | plant injury at 125 g/ha ([3]; pre-emergence, Preemergence, read-out: Plant response rating (scale 0 to 100), Oilseed Rape) | plant injury at 31 g/ha [3, 13] | plant injury at 62 g/ha [3, 13] | pest or weed control at 125 g/ha ([4]; pre-emergence, Preemergence, read-out: Plant response rating (scale 0 to 100), Pigweed) | pest or weed control at 31 g/ha [4, 15] | pest or weed control at 62 g/ha [4, 15] | pest or weed control at 125 g/ha ([6]; pre-emergence, Preemergence, read-out: Plant response rating (scale 0 to 100), Crabgrass, Large) | pest or weed control at 16 g/ha [6, 21] | pest or weed control at 31 g/ha [6, 21] | pest or weed control at 62 g/ha [6, 21]
40%: pest or weed control at 125 g/ha [6, 20] | pest or weed control at 62 g/ha ([7]; 62 g ai/ha, scale 0 to 100, 0 no effect, 100 complete control, read-out: Plant response rating, Foxtail, Giant)
55%: pest or weed control at 62 g/ha [1, 8] | pest or weed control at 125 g/ha [1, 8]
98%: pest or weed control at 125 g/ha [4, 14]
10%: pest or weed control at 16 g/ha [5, 16]
35%: pest or weed control at 16 g/ha ([1]; pre-emergence, Preemergence, 16 g ai/ha, scale 0 to 100 (0 no effect, 100 complete control), read-out: Plant response rating, Ragweed) | pest or weed control at 16 g/ha ([7]; 16 g ai/ha, scale 0 to 100 (0 no effect, 100 complete control), read-out: Foxtail, Giant plant response rating) | pest or weed control at 31 g/ha ([7]; 31 g ai/ha, scale 0 to 100 (0 no effect, 100 complete control), read-out: Foxtail, Giant plant response rating)
